Legend:
human OX1 receptors [1] = biological target: T1, human OX1 receptors (Homo sapiens, UniProt O43613); experiment: Intracellular calcium mobilization (FLIPR), antagonist mode vs EC70 orexin-A; conditions: HEK293 cells, mean ± s.e.m. (n)
T1 sequence (O43613 1-425): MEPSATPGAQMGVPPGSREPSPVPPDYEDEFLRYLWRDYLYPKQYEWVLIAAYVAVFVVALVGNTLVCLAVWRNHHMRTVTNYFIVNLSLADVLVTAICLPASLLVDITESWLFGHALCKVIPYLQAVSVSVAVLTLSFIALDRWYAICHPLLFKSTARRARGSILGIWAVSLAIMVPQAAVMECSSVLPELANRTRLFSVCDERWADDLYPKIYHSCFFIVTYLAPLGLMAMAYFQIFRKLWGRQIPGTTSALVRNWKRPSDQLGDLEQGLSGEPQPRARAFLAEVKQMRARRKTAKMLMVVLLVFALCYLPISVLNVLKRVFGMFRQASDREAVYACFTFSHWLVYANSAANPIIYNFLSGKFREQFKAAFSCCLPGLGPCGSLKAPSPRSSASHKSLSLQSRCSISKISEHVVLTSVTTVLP
Procedure: (§1) Recombinant human OX1 and OX2 receptors were stably expressed in HEK293 cells, or rat recombinant OX1 and OX2 receptors stably expressed in AV12 cells, and assessed for intracellular calcium mobilization using Fluo-3 dye (Molecular Probes, Eugene, OR). […] It was further diluted to 8 mM in 2.5 mM probenecid loading buffer which was made as described below. The human cell line was grown in DMEM/F-12 (3:1) supplemented with 10% FBS (heat-inactivated), 20 mM HEPES, 1% Penn/Strep, and 4 μg/ml Blasticidin (35,000 cells/well). The rat cell line was grown in DMEM supplemented with 10% FBS (heat-inactivated), 20 mM HEPES, 1% Penn/Strep, 4 μg/ml Blasticidin, and 1 mM sodium pyruvate (60,000 cells/well). […] Finally, plates were read on a fluorescence imaging plate reader (FLIPR; Molecular Devices, LLC, Sunnyvale, CA) instrument with a 50 μl addition of antagonist; cells were placed in the dark at room temperature for an additional 15 min; then read on FLIPR instrument with a 100 μl addition of an EC70 concentration of orexin A (for a total volume of 200 μl). […] Kb-values were calculated based on 10-point dilution curves using ActivityBase templates (ID Business Solutions, Ltd., Guildford, Surrey, UK). […]

human OX1 receptors [2] = biological target: T1, human OX1 receptors; experiment: Radioligand binding, [125I]-Orexin A displacement, HEK293 membranes; set-up: expressed in transfected cells; membranes; conditions: 90 min, mean ± s.e.m. (n)
Procedure: Briefly, the membranes were isolated by homogenizing cell pellet in 30 ml (w/v) 50 mM Tris buffer (pH 7.4) containing Roche Complete EDTA free protease tablets. […] All binding studies were conducted at a final volume of 200 μl. […] Then 300 μl of this solution was placed in column B on a Nunc polypropylene 96-well plate (Thermo Fisher Scientific, Inc., Rochester, NY). Serial dilutions were then made using a Biomek 2000 (Beckman Coulter, Inc., Fullerton, CA) from a starting concentration of 40 μM. […] All binding was terminated by rapid filtration using a TOMTEC 96-well cell harvester (Hamden, CT) through GF/A filters that had been presoaked with 0.3% polyethyleneimine. The filters were washed with 5.0 ml ice-cold 50 mM Tris buffer (pH 7.4) and air-dried overnight. […] Protein concentrations were measured using Coomassie Protein Plus Assay Reagent (Pierce, Rockford, IL) and serum albumin standards.

human OX2 receptors = biological target: T2, human OX2 receptors (Homo sapiens, UniProt O43614); experiment: Intracellular calcium mobilization (FLIPR), antagonist mode vs EC70 orexin-A; format: cell-based; set-up: expressed in transfected cells; conditions: HEK293 cells, mean ± s.e.m. (n); for Kb: read-out: Functional antagonist activity, Kb hOX2
T2 sequence (O43614 1-444): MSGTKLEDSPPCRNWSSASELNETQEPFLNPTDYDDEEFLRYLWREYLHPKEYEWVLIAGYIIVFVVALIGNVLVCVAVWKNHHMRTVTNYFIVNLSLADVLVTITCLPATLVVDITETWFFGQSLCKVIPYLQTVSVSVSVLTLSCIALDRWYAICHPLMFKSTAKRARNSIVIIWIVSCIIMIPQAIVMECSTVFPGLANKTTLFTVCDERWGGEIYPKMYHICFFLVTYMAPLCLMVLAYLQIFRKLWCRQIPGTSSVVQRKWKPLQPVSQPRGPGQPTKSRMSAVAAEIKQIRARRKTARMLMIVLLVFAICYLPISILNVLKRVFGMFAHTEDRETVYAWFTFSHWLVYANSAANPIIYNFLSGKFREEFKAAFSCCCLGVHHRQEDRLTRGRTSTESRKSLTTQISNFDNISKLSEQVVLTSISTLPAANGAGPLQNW

rat OX2 receptors = biological target: T3, rat OX2 receptors (Rattus norvegicus, UniProt P56719); experiment: cell-based
T3 sequence (P56719 1-460): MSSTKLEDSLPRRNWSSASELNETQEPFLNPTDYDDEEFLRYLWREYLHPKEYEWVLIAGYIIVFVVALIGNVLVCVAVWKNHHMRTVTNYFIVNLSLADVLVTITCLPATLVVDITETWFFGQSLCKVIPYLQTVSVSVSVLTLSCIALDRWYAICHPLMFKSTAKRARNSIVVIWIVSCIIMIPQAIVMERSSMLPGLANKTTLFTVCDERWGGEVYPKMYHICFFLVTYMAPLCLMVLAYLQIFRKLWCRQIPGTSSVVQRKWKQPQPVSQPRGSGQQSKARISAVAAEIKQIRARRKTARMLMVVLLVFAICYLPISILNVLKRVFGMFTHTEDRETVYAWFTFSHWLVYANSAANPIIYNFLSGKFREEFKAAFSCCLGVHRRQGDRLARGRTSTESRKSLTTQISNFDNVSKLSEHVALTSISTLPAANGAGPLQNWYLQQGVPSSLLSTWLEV

rat OX1 receptors = biological target: T4, rat OX1 receptors (Rattus norvegicus, UniProt P56718); experiment: cell-based
T4 sequence (P56718 1-416): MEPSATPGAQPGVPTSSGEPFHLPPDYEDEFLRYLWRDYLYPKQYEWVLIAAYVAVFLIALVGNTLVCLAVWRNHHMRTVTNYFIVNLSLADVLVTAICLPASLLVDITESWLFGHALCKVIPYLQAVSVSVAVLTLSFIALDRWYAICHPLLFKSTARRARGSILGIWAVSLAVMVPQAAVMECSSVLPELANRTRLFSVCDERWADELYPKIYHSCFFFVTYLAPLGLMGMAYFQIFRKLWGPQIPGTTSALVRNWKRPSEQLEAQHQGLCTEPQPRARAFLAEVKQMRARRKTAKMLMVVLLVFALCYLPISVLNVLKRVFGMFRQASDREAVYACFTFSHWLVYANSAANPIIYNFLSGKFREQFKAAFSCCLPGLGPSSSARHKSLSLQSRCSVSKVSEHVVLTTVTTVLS
Procedure: as §1

| Compound | Functional antagonist activity, Kb hOX1 (human OX1 receptors [1]) | Receptor binding affinity, Ki OX1 (human OX1 receptors [2]) | Functional antagonist activity, Kb hOX2 (human OX2 receptors) | Kb (human OX2 receptors) | Kb (rat OX2 receptors) | Kb (rat OX1 receptors) |
| --- | --- | --- | --- | --- | --- | --- |
| CNC(=O)[C@@H](c1ccccc1)N1CCc2cc(OC)c(OC)cc2[C@@H]1CCc1ccc(C(F)(F)F)cc1 [Almorexant (R)] | inactive | inactive | inactive | > 10000 nM |  |  |
| CNC(=O)[C@@H](c1ccccc1)N1CCc2cc(OC)c(OC)cc2[C@@H]1CCc1ccc(C(F)(F)F)cc1 [Almorexant (S)] |  |  |  | 1.73 ± 0.35 nM | 4.4 ± 1.6 nM | 3.2 ± 0.7 nM |

Reference: publication PMC3904085 (Frontiers in Neuroscience, 2014)
